Results published in patent US8334316B2, “Substituted organosulfur compounds and methods of using thereof” (ACEA Biosciences, Inc., priority 2004, dated 2012).
Several values for one entry are separate records, joined by “and”; a condition that tells them apart may be missing. Equal values may be shown once. Marks after values point to notes of the source that are not given here.

Columns and labels:
[1] = test system: A549 human lung cancer cells; experiment: Apoptosis: Annexin V-Cy3 / 6-CFDA staining of A549 cells; assay type: cell-based; details: 1 uM, 24 hrs
Protocol: The cells were incubated with the drugs for 24 hours and then washed 2× with PBS and 3× with binding buffer (10 mM HEPES, pH 7.5, 140 mM NaCl, 2.5 mM CaCl2). […] The cells were gently washed 3× in 1× binding buffer, mounted, viewed under immunofluorescent microscope and imaged using an attached CCD camera. Note that live cells show staining only with 6-CFDA (green), while necrotic cells will stain only with Annexin V-Cy3 (red). Cells starting the apoptotic process will stain both with AnnexinV-Cy3 and 6-CFDA.

[2] = test system: Bcap-37 human breast cancer; experiment: Bcap-37 human breast cancer xenograft in nude mice, dosing from 24 h after transplantation (Example 3); assay type: in vivo; details: for tumor inhibition rate %: vs solvent control
Text: Both male and female mice were used. […] Test control. […] Preparation and Administration of Test Compounds. […] For human tumor xenograft model, all used materials, including animal food, animal cage, supporting materials and apparatus contacted by animals, were high-pressure sterilized. Nude mice were maintained in laminar flow shelves under SPF condition. After tumor transplantation, mouse weight and tumor size in each compound dosage group were dynamically monitored and plotted.

[3] = test system: Bcap-37 human breast cancer; experiment: Bcap-37 human breast cancer xenograft in nude mice, dosing from day 7 when tumors palpable (Example 5); assay type: in vivo; details: 8 mg/kg iv x7 qd
Protocol: Only female mice were used in this study. […] The high, middle and low doses of ACEA100108 were 50, […] and 8 mg/kg/d, respectively.
Preparation and Administration of Test Compounds. […] Seven days after the tumor transplantation, the transplanted tumors grew to size sufficiently large that could be felt by hands when one touched the animal. […] The high, middle and low dose of ACEA100108 was 50, 20 and 8 mg/kg, respectively.
About seven days after the transplantation, tumors in the mice grew sufficiently large so that tumor could be felt by hands when one touched the animals.
For the human breast cancer xenograft model, all used materials, including animal food, animal cage, supporting materials and apparatus contacted by animals, were high-pressure sterilized. Nude mice were maintained in laminar flow shelves under SPF condition. After tumor transplantation, mouse weight and tumor size in each compound dosage group were dynamically monitored and recorded. The tumors size was determined by measuring the major axis (a) and minor axis (b) of the tumor, and tumor volume was calculated according to the equation (3) in Example 3.

[4] = 8 mg/kg iv x7 qd, 7 days after transplantation
[5] = 20 mg/kg iv x7 qd, 7 days after transplantation
[6] = 50 mg/kg iv x7 qd, 7 days after transplantation

With `Fc1ccc(CSSSCc2ccc(F)cc2)cc1` [ACEA100108, Di(p-fluorobenzyl)trisulfide] the “Annexin V staining (apoptosis)” value [1] was “strong staining of Annexin V”, the “Mice with palpable tumor / total mice” value [2, 4] was 4/6†† and the “Tumor volume (cm^3)” value [2, 4] was 0.01 cm^3. For the same compound, the “Tumor volume (cm^3)” value ([2]; 8 mg/kg iv x7 qd, 14 d) was 0.068 ± 0.02 cm^3, the “Tumor volume (cm^3)” value ([2]; 8 mg/kg iv x7 qd, 21 d) was 0.214 ± 0.04 cm^3 and the “Tumor volume (cm^3)” value ([2]; 8 mg/kg iv x7 qd, 24 d (end)) was 0.985 cm^3 and 0.985 ± 0.4 cm^3. The “TV inhibition rate % T/C” value ([2]; 8 mg/kg/d iv x7 qd) was 56.15%, the “Tumor weight” value ([2]; 8 mg/kg/d iv x7 qd) was 1.18 ± 0.23 g and the “Body weight of mice” value ([2]; 8 mg/kg/d iv x7 qd, 0 day (beginning)) was 18.0 g and 18 ± 0.6 g. The “Body weight of mice” value ([2]; 8 mg/kg/d iv x7 qd, 7 day) was 19.5 ± 1 g, the “Body weight of mice” value ([2]; 8 mg/kg/d iv x7 qd, 14 d) was 21.5 ± 1 g and the “Body weight of mice” value ([2]; 8 mg/kg/d iv x7 qd, 21 d) was 22.3 ± 1.6 g. The “Body weight of mice” value ([2]; 8 mg/kg/d iv x7 qd, 24 d (end)) was 23.0 g and 23 ± 1.5 g, the “tumor inhibition rate %” value ([2]; 8 mg/kg/d iv x7 qd) was 31.40% and the “Mice with palpable tumor / total mice” value [2, 5] was 5/6††. The “Tumor volume (cm^3)” value [2, 5] was 0.01 cm^3, the “Tumor volume (cm^3)” value ([2]; 20 mg/kg iv x7 qd, 14 d) was 0.049 ± 0.03 cm^3 and the “Tumor volume (cm^3)” value ([2]; 20 mg/kg iv x7 qd, 21 d) was 0.167 ± 0.03 cm^3. For the same compound, the “Tumor volume (cm^3)” value ([2]; 20 mg/kg iv x7 qd, 24 d (end)) was 0.488 cm^3 and 0.488 ± 0.07 cm^3, the “TV inhibition rate % T/C” value ([2]; 20 mg/kg/d iv x7 qd) was 27.82% and the “Tumor weight” value ([2]; 20 mg/kg/d iv x7 qd) was 0.755 ± 0.09 g. The “Body weight of mice” value ([2]; 20 mg/kg/d iv x7 qd, 0 day (beginning)) was 17.6 g and 17.6 ± 0.8 g, the “Body weight of mice” value ([2]; 20 mg/kg/d iv x7 qd, 7 day) was 19.7 ± 1 g and the “Body weight of mice” value ([2]; 20 mg/kg/d iv x7 qd, 14 d) was 20.8 ± 1 g. For the same compound, the “Body weight of mice” value ([2]; 20 mg/kg/d iv x7 qd, 21 d) was 22.7 ± 1.2 g, the “Body weight of mice” value ([2]; 20 mg/kg/d iv x7 qd, 24 d (end)) was 23.0 g and 23 ± 1.2 g and the “tumor inhibition rate %” value ([2]; 20 mg/kg/d iv x7 qd) was 56.10%. The “Mice with palpable tumor / total mice” value [2, 6] was 3/6††, the “Tumor volume (cm^3)” value [2, 6] was 0.01 cm^3 and the “Tumor volume (cm^3)” value ([2]; 50 mg/kg iv x7 qd, 14 d) was 0.023 ± 0.02 cm^3. The “Tumor volume (cm^3)” value ([2]; 50 mg/kg iv x7 qd, 21 d) was 0.112 ± 0.03 cm^3, the “Tumor volume (cm^3)” value ([2]; 50 mg/kg iv x7 qd, 24 d (end)) was 0.310 cm^3 and 0.31 ± 0.05 cm^3 and the “TV inhibition rate % T/C” value ([2]; 50 mg/kg/d iv x7 qd) was 17.67%. For the same compound, the “Tumor weight” value ([2]; 50 mg/kg/d iv x7 qd) was 0.617 ± 0.09 g, the “Body weight of mice” value ([2]; 50 mg/kg/d iv x7 qd, 0 day (beginning)) was 18.1 g and 18.1 ± 1.1 g and the “Body weight of mice” value ([2]; 50 mg/kg/d iv x7 qd, 7 day) was 18.8 ± 0.8 g. The “Body weight of mice” value ([2]; 50 mg/kg/d iv x7 qd, 14 d) was 20.5 ± 1 g, the “Body weight of mice” value ([2]; 50 mg/kg/d iv x7 qd, 21 d) was 22.2 ± 1.2 g and the “Body weight of mice” value ([2]; 50 mg/kg/d iv x7 qd, 24 d (end)) was 23.0 g and 23 ± 1.2 g. The “tumor inhibition rate %” value ([2]; 50 mg/kg/d iv x7 qd) was 64.13%, the “Body weight of mice” value ([3]; 0 d (beginning)) was 18.5 g and 18.5 ± 1 g and the “Body weight of mice” value ([3]; 7 d) was 19.8 ± 1.5 g. For the same compound, the “Mice with palpable tumor / total mice” value ([3]; 7 d) was 6/6††, the “Tumor volume (cm^3)” value ([3]; 7 d after transplantation (start of dosing)) was 0.01 cm^3 and the “Body weight of mice” value ([3]; 14 d) was 21.7 ± 1.4 g. The “Tumor volume (cm^3)” value ([3]; 14 d) was 0.107 ± 0.02 cm^3, the “Body weight of mice” value ([3]; 21 d) was 23.2 ± 1.5 g and the “Tumor volume (cm^3)” value ([3]; 21 d) was 0.27 ± 0.03 cm^3. For the same compound, the “Tumor volume (cm^3)” value ([3]; 24 d) was 0.962 ± 0.23 cm^3.
